# Test results as given in PubChem BioAssay AID330 (DTP/NCI, 2004).
# Several values for one entry are separate records, joined by “and”; a condition that tells them apart may be missing. Equal values may be shown once. Toxic doses and inconclusive results are not listed.
# System: P388 leukemia ip, CD2F1 mice, survival T/C
# Test: NCI In Vivo Anticancer Drug Screen. Data for tumor model P388 Leukemia (intraperitoneal) in CD2F1 (CDF1) mice
# Details: endpoint: median survival time, higher = longer survival
# Procedure, shortened: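 Mice carrying the transplanted tumor received test compound or vehicle. Survival was recorded in each group, and the value is the treated-group measurement divided by that of the vehicle-treated control group.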
# [1] = dose: 50.0 mg/kg/injection, schedule: Q01DX009 (ip), vehicle: Klucel (hydroxypropylcellulose) (HPC)
# [2] = dose: 100.0 mg/kg/injection, schedule: Q01DX009 (ip), vehicle: Klucel (hydroxypropylcellulose) (HPC)
# [3] = dose: 200.0 mg/kg/injection, schedule: Q01DX009 (ip), vehicle: Klucel (hydroxypropylcellulose) (HPC)
# [4] = dose: 50.0 mg/kg/injection, schedule: Q01DX005 (ip), vehicle: saline with Tween-80
# [5] = dose: 100.0 mg/kg/injection, schedule: Q01DX005 (ip), vehicle: saline with Tween-80
structure (smiles),measurement,setting,value
COC(=O)C12OCC34C(CC5C(C)C6=CC(=O)OC6=CC5(C)C3C(O)C1O)OC(=O)C(O)C24 (stereo unspecified),T/C,"dose: 0.63 mg/kg/injection, schedule: Q01DX005 (ip), vehicle: Klucel (hydroxypropylcellulose) (HPC)",150 % of control
same,T/C,"dose: 1.25 mg/kg/injection, schedule: Q01DX005 (ip), vehicle: Klucel (hydroxypropylcellulose) (HPC)",169 % of control
OB(O)c1ccc(B(O)O)cc1,T/C,[1],104 % of control
same,T/C,[2],103 % of control
same,T/C,[3],95 % of control
same,T/C,"dose: 400.0 mg/kg/injection, schedule: Q01DX009 (ip), vehicle: Klucel (hydroxypropylcellulose) (HPC)",104 % of control
O=C1CS(=O)(=O)C(c2ccccc2Cl)N1N1C(=O)CS(=O)(=O)C1c1ccccc1Cl (stereo unspecified),T/C,[4],96 % of control
same,T/C,[5],90 % of control
same,T/C,"dose: 200.0 mg/kg/injection, schedule: Q01DX005 (ip), vehicle: saline with Tween-80",89 % of control
COc1ccccc1NC(N)=S,T/C,"dose: 25.0 mg/kg/injection, schedule: Q01DX009 (ip), vehicle: Klucel (hydroxypropylcellulose) (HPC)",96 % of control
same,T/C,[1],98 % of control
same,T/C,[2],96 % of control
same,T/C,[3],97 % of control
Cn1c(=O)c2nc(-c3ccccc3)cnc2n(C)c1=O,T/C,"dose: 100.0 mg/kg/injection, schedule: Q01DX001 (ip), vehicle: saline",99 % of control
same,T/C,"dose: 200.0 mg/kg/injection, schedule: Q01DX001 (ip), vehicle: saline",96 % of control
same,T/C,"dose: 400.0 mg/kg/injection, schedule: Q01DX001 (ip), vehicle: saline",111 % of control
CCOC1=C(C)C(N(CC)CC)=NS(=O)(=O)c2ccccc21,T/C,"dose: 100.0 mg/kg/injection, schedule: Q01DX001 (ip), vehicle: Klucel (hydroxypropylcellulose) (HPC)",99 % of control
same,T/C,"dose: 200.0 mg/kg/injection, schedule: Q01DX001 (ip), vehicle: Klucel (hydroxypropylcellulose) (HPC)",103 % of control
same,T/C,"dose: 400.0 mg/kg/injection, schedule: Q01DX001 (ip), vehicle: Klucel (hydroxypropylcellulose) (HPC)",98 % of control
COc1nc2c(ccn2C2OCC(OC(C)=O)C(OC(C)=O)C2OC(C)=O)c(=O)n1C (stereo unspecified),T/C,"dose: 60.0 mg/kg/injection, schedule: Q01DX005 (ip), vehicle: saline with Tween-80",100 % of control
same,T/C,"dose: 120.0 mg/kg/injection, schedule: Q01DX005 (ip), vehicle: saline with Tween-80",97 % of control
same,T/C,"dose: 240.0 mg/kg/injection, schedule: Q01DX005 (ip), vehicle: saline with Tween-80",100 % of control
[CH3][Sn]([c]1ccccc1)([c]1cccc2ccccc12)[c]1cccc2ccccc12,T/C,"dose: 100.0 mg/kg/injection, schedule: Q04DX003 (ip), vehicle: saline with Tween-80",89 % of control
same,T/C,"dose: 200.0 mg/kg/injection, schedule: Q04DX003 (ip), vehicle: saline with Tween-80",91 % of control
same,T/C,"dose: 400.0 mg/kg/injection, schedule: Q04DX003 (ip), vehicle: saline with Tween-80",88 % of control
Nc1cc2c(c[n+](CCCCCCCCCBr)c3ccccc23)c2ccccc12,T/C,"dose: 1.56 mg/kg/injection, schedule: Q04DX003 (ip), vehicle: other",155 % of control
same,T/C,"dose: 3.13 mg/kg/injection, schedule: Q04DX003 (ip), vehicle: other",155 % of control
same,T/C,"dose: 6.25 mg/kg/injection, schedule: Q04DX003 (ip), vehicle: other",150 % of control
O=C(O)c1cc(-n2c(-c3ccccc3)cc3c2CCc2ccccc2-3)ccc1O,T/C,[4],109 % of control
same,T/C,[5],110 % of control
CN=C(N)N/N=C(\c1ccccc1)c1ccc(Cl)c([N+](=O)[O-])c1,T/C,"dose: 12.5 mg/kg/injection, schedule: Q04DX002 (ip), vehicle: saline with Tween-80",105 % of control
same,T/C,"dose: 25.0 mg/kg/injection, schedule: Q04DX002 (ip), vehicle: saline with Tween-80",105 % of control
same,T/C,"dose: 50.0 mg/kg/injection, schedule: Q04DX002 (ip), vehicle: saline with Tween-80",99 % of control
same,T/C,"dose: 100.0 mg/kg/injection, schedule: Q04DX002 (ip), vehicle: saline with Tween-80",97 % of control
same,T/C,"dose: 200.0 mg/kg/injection, schedule: Q04DX002 (ip), vehicle: saline with Tween-80",98 % of control
same,T/C,"dose: 400.0 mg/kg/injection, schedule: Q04DX002 (ip), vehicle: saline with Tween-80",113 % of control
Nc1nc2c(ncn2C2OC(CO)C(O)C2O)c(=O)[nH]1.[Cl-].[Cl-].[NH2-].[NH2-].[Pt+4] (stereo unspecified),T/C,"dose: 2.0 mg/kg/injection, schedule: Q01DX009 (ip), vehicle: saline",118 % of control
same,T/C,"dose: 4.0 mg/kg/injection, schedule: Q01DX009 (ip), vehicle: saline",122 % of control
same,T/C,"dose: 8.0 mg/kg/injection, schedule: Q01DX009 (ip), vehicle: saline",172 % of control and 178 % of control
same,T/C,"dose: 16.0 mg/kg/injection, schedule: Q01DX009 (ip), vehicle: saline",216 % of control and 238 % of control
same,T/C,"dose: 32.0 mg/kg/injection, schedule: Q01DX009 (ip), vehicle: saline",93 % of control
